In patent US8318504B2, “MRP2 efflux pathway prognostic method” (priority 2009, dated 2012):

Assays:
[1] = target: T1, OATP1B3 (Homo sapiens, UniProt Q9NPD5); assay: Inhibition by CLF of TC transport in CHO cells expressing OATP1B3; format: cell-based; settings: 0, 5 or 50 μmol/L CLF, 10 μmol/L TC
T1 construct: expressed in transfected cells; host or cells: CHO cells (stably transfected; Treiber et al. 2007)
T1 sequence (Q9NPD5 1-702): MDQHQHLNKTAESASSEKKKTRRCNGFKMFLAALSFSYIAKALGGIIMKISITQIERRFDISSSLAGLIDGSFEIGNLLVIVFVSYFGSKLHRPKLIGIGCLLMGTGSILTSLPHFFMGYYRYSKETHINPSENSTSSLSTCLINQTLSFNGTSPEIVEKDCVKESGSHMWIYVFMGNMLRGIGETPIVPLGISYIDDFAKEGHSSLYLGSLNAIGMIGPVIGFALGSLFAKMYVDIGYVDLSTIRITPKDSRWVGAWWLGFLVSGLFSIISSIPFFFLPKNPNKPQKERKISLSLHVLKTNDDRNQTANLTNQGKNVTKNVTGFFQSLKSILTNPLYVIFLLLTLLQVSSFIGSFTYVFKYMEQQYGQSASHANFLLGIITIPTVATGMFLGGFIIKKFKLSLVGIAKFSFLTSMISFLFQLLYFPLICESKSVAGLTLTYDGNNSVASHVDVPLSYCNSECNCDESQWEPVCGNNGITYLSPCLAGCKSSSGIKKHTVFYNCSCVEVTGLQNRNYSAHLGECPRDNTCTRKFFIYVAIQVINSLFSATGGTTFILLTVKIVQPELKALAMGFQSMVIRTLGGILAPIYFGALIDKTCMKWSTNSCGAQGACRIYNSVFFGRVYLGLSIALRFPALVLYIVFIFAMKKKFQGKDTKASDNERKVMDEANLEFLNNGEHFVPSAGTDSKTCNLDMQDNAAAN
Description: FIGS. 3A-3D relate to inhibition of transport activity of hepatocellular uptake transporters by CLF. CHO cells expressing NTCP, OATP1B1, OATP1B3 and OATP2B1 were incubated with 0, 5 or 50 μmol/L CLF and with the substrates, 2.5 μmol/L TC, 1 μmol/L estrone-3-sulfate, 10 μmol/L TC and 1 μmol/L estrone-3-sulfate, respectively. Data represent means±SD of triplicate determinations.
For all transport experiments, cells grown on 3 cm culture dishes were cultured for 24 hours in media supplemented with 5 mmol/L sodium-butyrate to increase expression levels of transfected transporters [Palermo D P et al., J Biotechnol 1991 June; 19(1):35-47]. • Transport experiments with uptake of radioactively labeled substrates: These experiments were performed as described by Huber R D et al. [Am J Physiol Cell Physiol 2007 February; 292(2):C795-C806]. • Transport experiments with uptake of CLF: Uptake was performed in the same buffers as for the radioactive substrates above. […] After complete solubilization, 1.5 ml was used to measure fluorescence in a Perkin-Elmer LS-5 luminescence-spectrometer set at λexe 486 nm (slit 10 nm) and λem 520 nm (slit 5 nm). Protein was determined with the bicinchoninic acid method using a kit from Interchim (Montfuçon, France). […]

[2] = ATP-dependent transport of CLF into control wild type Sf21 membrane vesicles; format: biochemical
Description: (§1) The production of recombinant baculovirus was as described by de Waart et al. [Liver Int 2006 April; 26(3):362-368]. ABCC3 and ABCG2-recombinant baculovirus were a kind gift from Borst [Breedveld P. et al., Cancer Res 2004 Aug. 15; 64(16):5804-5811 and Borst P. et al., J Biol Chem 2001 Dec. 7; 276(49):46400-46407.]. ABCB11-recombinant baculovirus was a kind gift from Thompson [Thompson R J et al., Gastroenterology 2002 November; 123(5):1649-1658]. Sf21 cells grown at 27° C. were infected with ABCB11, ABCC2, ABCC3 and ABCG2-cDNA containing baculovirus. Cells were harvested at 2-4 days after infection. Membrane vesicle preparation was as described by de Waart et al. [Liver Int 2006 April; 26(3):362-368].
(§2) Transport studies with membrane vesicles were performed using the rapid filtration technique as described by Heijn M et al. [Am J Physiol 1992 January; 262(1 Pt 1):C104-C110]. Radiolabel was measured with a scintillation counter. When CLF was used as a probe, filters were placed in a glass tube, 0.1% Triton-X-100 was added and the tubes vortexed. Samples were pipetted in 96-well plates (Kartell, Noviglio, Italy) and the amount CLF quantitated by measurement of fluorescence at λexe 485 nm and λcm 520 nm using a NovoStar (BMG-labtech, Offenburg, Germany).

[3] = target: T2, ABCB11 (Homo sapiens, UniProt O95342); assay: ATP-dependent transport of CLF into Sf21 membrane vesicles containing ABCB11; format: biochemical; settings: compared with control vesicles
T2 construct: His tag (inferred from the anti-his probe used on the Western blot); made in house; host or cells: Sf21 insect cells, baculovirus (gift from Thompson); plasma membrane vesicles
Description: as §1, §2

T2 sequence (O95342 whole entry): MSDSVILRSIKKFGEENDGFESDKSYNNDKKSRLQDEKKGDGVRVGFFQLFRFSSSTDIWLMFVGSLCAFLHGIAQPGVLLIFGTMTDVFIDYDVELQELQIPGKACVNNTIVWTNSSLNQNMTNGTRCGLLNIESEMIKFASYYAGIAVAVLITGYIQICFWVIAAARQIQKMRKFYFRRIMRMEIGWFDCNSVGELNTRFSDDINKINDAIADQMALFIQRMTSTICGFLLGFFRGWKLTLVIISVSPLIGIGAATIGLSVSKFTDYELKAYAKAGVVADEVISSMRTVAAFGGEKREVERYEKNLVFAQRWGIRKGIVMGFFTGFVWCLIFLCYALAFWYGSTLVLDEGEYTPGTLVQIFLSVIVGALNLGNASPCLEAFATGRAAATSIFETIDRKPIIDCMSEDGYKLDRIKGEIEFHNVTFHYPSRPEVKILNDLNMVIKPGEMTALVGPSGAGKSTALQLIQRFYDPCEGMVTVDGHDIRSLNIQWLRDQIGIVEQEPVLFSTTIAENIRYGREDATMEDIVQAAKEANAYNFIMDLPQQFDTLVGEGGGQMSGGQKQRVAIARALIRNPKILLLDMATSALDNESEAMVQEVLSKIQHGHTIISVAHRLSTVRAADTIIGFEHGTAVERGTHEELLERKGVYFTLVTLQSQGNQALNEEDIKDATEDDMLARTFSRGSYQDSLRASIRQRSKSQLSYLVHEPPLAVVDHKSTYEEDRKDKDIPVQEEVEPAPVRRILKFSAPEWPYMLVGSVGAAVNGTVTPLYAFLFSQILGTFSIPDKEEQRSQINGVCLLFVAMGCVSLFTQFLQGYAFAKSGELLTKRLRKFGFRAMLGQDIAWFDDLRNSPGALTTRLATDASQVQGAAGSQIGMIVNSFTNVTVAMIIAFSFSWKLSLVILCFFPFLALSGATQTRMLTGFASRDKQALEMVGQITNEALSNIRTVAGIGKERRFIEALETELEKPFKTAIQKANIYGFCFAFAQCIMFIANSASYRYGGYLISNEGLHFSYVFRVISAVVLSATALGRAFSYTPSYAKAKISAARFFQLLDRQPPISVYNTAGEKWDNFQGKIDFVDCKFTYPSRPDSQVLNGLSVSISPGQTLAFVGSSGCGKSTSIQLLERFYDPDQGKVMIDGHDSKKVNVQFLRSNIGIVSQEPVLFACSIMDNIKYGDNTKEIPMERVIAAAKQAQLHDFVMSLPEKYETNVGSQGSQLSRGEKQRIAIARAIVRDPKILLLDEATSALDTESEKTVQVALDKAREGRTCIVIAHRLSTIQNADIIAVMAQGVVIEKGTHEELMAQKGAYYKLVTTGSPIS

## CC(CCC(=O)NC(CCCCNC(=S)Nc1ccc(-c2c3ccc(=O)cc-3oc3cc(O)ccc23)c(C(=O)O)c1)C(=O)O)C1CCC2C3C(O)CC4CC(O)CCC4(C)C3CC(O)C12C (stereo not drawn) [CLF, cholyl lysyl fluorescein]
[1]
  inhibition of transport of TC mediated by OATP1B3 by CLF: inhibited by CLF in a dose-dependent manner
[2]
  ATP-dependent uptake of CLF in control vesicles: slight ATP-dependent uptake
[3]
  ATP-dependent transport of CLF in ABCB11 containing membrane vesicles: not higher than in control vesicles
